Measured values as given in publication PMC9312158, “Novel 1,2,3-Triazole-sulphadiazine-ZnO Hybrids as Potent Antimicrobial Agents against Carbapenem Resistant Bacteria” (Antibiotics, 2022).
Where two headings read alike, the source gives them in different places.

What was measured:
[1] = target: IMP-1 (Serratia marcescens, UniProt P52699); assay: In vitro MBLs inhibition assay with CENTA substrate, IMP-1; format: biochemical; conditions: for inhibition at 5 µM: 5 µM compound, CENTA 70 µM, read-out: % Inhibition IPM-1 (5 µM)
Experimental: (§1) Assays of enzyme inhibition were measured in the absence and presence of 5 µM of compound 4a–c and their ZnO conjugated hybrids to determine their inhibitory activity (IMP1 and NDM-1). CENTA (70 µM), a chromogenic cephalosporin substrate, was employed. The chromophore […] is formed when MBLs hydrolyze CENTA, and its generation may be detected spectrophotometrically using a plate reader at = 405 nm (at pH 7.0, ε = 6400 M^−1 cm^−1). Assays of kinetics of the inhibition experiments were carried out in accordance with earlier research. Non-linear regression was used to examine the inhibition data.

[2] = target: NDM-1 (Klebsiella pneumoniae, UniProt C7C422); assay: In vitro MBLs inhibition assay with CENTA substrate, NDM-1; format: biochemical; conditions: for inhibition at 5 µM: 5 µM compound, CENTA 70 µM
Experimental: as §1

[3] = inhibition constant for the competitive inhibition mode, read-out: IPM-1 Kic
[4] = inhibition constant for the uncompetitive inhibition mode, read-out: IPM-1 Kiuc
[5] = inhibition constant for the competitive inhibition mode, read-out: NDM-1 Kic
[6] = inhibition constant for the uncompetitive inhibition mode, read-out: NDM-1 Kiuc

IMP-1, sequence (P52699 19-246, looked up, species assumed): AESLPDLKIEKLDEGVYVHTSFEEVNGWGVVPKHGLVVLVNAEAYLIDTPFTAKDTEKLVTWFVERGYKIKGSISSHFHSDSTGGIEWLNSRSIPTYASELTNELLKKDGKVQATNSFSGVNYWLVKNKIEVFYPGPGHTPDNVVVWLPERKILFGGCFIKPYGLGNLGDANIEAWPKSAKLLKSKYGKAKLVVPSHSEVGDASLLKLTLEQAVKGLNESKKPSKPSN
NDM-1, sequence (C7C422 29-270, looked up, species assumed): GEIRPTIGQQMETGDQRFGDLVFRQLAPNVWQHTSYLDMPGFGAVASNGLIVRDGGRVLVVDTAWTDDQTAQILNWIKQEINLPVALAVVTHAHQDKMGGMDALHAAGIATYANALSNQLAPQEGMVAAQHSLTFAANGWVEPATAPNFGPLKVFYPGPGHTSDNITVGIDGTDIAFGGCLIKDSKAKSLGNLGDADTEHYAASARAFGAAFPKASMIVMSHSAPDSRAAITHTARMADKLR

Row | inhibition at 5 µM [1] [%] | Ki [1, 3] [µM] | Ki [1, 4] [µM] | inhibition at 5 µM [2] [%] | Ki [2, 5] [µM] | Ki [2, 6] [µM] | SMILES
1 | 75.4 | 11.4 | 7.6 | 68.7 | 9 | 6 | O=S(=O)(Nc1ccccn1)c1ccc(-n2cc(CO)nn2)cc1 [Compound 3b]
2 | 72.9 | 10.9 | 5.1 | 64.3 | 8.5 | 3.9 | NC(N)=NS(=O)(=O)c1ccc(-n2cc(CO)nn2)cc1 [Compound 3c]
3 | 75 | 11.8 | 7.7 | 71.2 | 9.6 | 6 | O=S(=O)(Nc1ncccn1)c1ccc(-n2cc(CO)nn2)cc1 [Compound 3a]
